Where “and” joins values, the source holds several entries; their conditions need not be identical. Equal values may be shown once.
What was measured:
[1] = system: adults with uncontrolled, severe asthma; assay: Phase 2b study CD-RI-CAT-354-1049 of SC tralokinumab, subgroup analysis by baseline serum periostin; type: in vivo, human; details: for Asthma exacerbation rate reduction: 300 mg Q2W vs placebo
Description: A 5-week screening/run-in period (Week −5 to −1 [Day −1]) preceded randomisation. Starting at Week −4 (Day −28), patients received a fixed-dose combination product of fluticasone/salmeterol, either as an MDI (230 μg/21 μg) at a dose of 2 inhalations twice per day or as a DPI (500 μg/50 μg) at a dose of one inhalation twice per day. If the patient was also taking additional asthma controller medications (including leukotriene modifiers, theophylline, cromones, a secondary ICS, or oral prednisolone 20 mg/day or equivalent OCS), then these medications were to be continued at a stable dose during the screening/run-in and treatment period.
Patients were randomised in a 1:1 ratio to one of 2 cohorts (Cohort 1 or Cohort 2).

[2] = system: EPIAIRWAY™ tissue (normal and asthmatic lung epithelium); assay: Periostin levels in IL-13 stimulated […] tissue models (sandwich ELISA); type: cell-based, human; details: stimulated with 50 ng/mL IL-13 for 48 hours
Description: Biotin/streptavidin-HRP-based sandwich ELISA assays were performed as follows. Specific details such as anti-periostin capture antibodies, samples to be tested, and anti-periostin detection antibodies are noted for specific experiments in the various examples Variations to standard ELISA protocols are well known to those of ordinary skill in the art, and can be used according to this disclosure.
High binding ELISA plates were coated with an anti-periostin capture mAb, e.g., 4B4.B11 (2 μg/mL in PBS; 100 μL/well), and were incubated overnight at 4° C. The plates were washed three times with 200 μL/well wash buffer (PBS/0.1% TWEEN-20®). Following washing, 200 μL/well block buffer (e.g., PBS/50× dilution of reagent diluent concentrate (available from R & D Systems)/0.05% TWEEN-20® or PBS/3% nonfat dry milk/0.1% TWEEN-20®) was added to each well, and the plates were incubated for one hour at room temperature. The plates were then washed three times as noted above.
For the standard curve, periostin standards (e.g., standards available from R & D Systems Cat #3548-F2) were serially diluted in block buffer, e.g., 2-fold dilutions from 50 ng/mL to 0.78 ng/mL. […] Finally the plates were read on a spectrophotometer at λ=450 nm. […]

[3] = system: patients with uncontrolled asthma; details: above-median vs below-median baseline serum periostin; cited from earlier work
[4] = post hoc, 300 mg Q2W, FEV1 reversibility ≥12% and serum periostin < median
[5] = post hoc, 300 mg Q2W, FEV1 reversibility ≥12% and serum periostin ≥ median
[6] = post hoc, reversible patients regardless of serum periostin level

## tralokinumab: anti-IL-13 monoclonal antibody (SEQ ID NOs 8-9)
[1]; 300 mg Q2/4W, through to Week 53, periostin < median
  percent change from baseline in pre-bronchodilator FEV1 over time: No significant increases
[1]; Week 53, ITT (regardless of serum periostin level)
  Asthma exacerbation rate reduction: 7%
[1]; Week 53, baseline serum Periostin ≥ Median
  Asthma exacerbation rate reduction: 25%
[1]; 300 mg Q2W, ITT
  Change from baseline in ACQ-6: −0.18
  Change from baseline in AQLQ: 0.21
[1]; 300 mg Q2W, Periostin < Median
  Change from baseline in ACQ-6: −0.02
  Change from baseline in AQLQ: 0.21
[1]; 300 mg Q2W, Periostin ≥ Median
  Change from baseline in ACQ-6: −0.23
  Change from baseline in AQLQ: 0.22
[1]; 300 mg Q2W, Week 53, ITT (regardless of serum periostin level)
  Percent change from baseline in FEV1: 7.1%
[1]; 300 mg Q2W, Week 53, Periostin < Median
  Percent change from baseline in FEV1: 7.06%
[1]; 300 mg Q2W, Week 53, Periostin ≥ Median
  Percent change from baseline in FEV1: 6.75% and 6.8%
[1]; 300 mg Q2W, through to Week 53, periostin < median
  percent change from baseline in pre-bronchodilator FEV1 over time: No significant increases
[1]; 300 mg Q2W, through to Week 53, periostin >= median
  percent change from baseline in pre-bronchodilator FEV1 over time: Relative increases
[1]; baseline serum periostin above the median compared to below the median
  reduction in serum periostin levels: Greater reduction
[1]; [4]
  increase in FEV1: 7.62%
  reduction in AER: 4%
[1]; [5]
  percentage increase from baseline in pre-bronchodilator FEV1 compared to placebo: 13.85%
  reduction in AER: 54%
[1]; [6]
  AER reduction: 34%
  increase in FEV1: 11.07%
[1]; soon after the first dose and for the duration of the study
  serum periostin levels: substantially reduced

## IL-13: 114 amino acid cytokine used to stimulate periostin expression
[2]
  periostin levels: increase

## lebrikizumab: anti-human-IL-13 antibody (SEQ ID NOs 6-7), Roche/Genentech
[3]
  AER reduction: greater AER reduction
  increases in FEV1: larger increases

Source: US10775388B2, “Methods of using antibodies to determine periostin levels in a sample” (MEDIMMUNE, LLC, priority 2014, dated 2020)
